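Assay format: 96-well plates, 48-hour exposure. TGI marks complete inhibition of growth.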
Columns and labels:
Experiment in all cases: inhibition of tumour cell growth, NCI panel, 48 h
A498 renal = system: A498 renal
SK-MEL-28 melanoma = system: SK-MEL-28 melanoma
T-47D breast = system: T-47D breast
BT-549 breast = system: BT-549 breast
SR leukemia = system: SR leukemia
HCC-2998 colon = system: HCC-2998 colon
SNB-75 CNS = system: SNB-75 CNS

Row | Compound | TGI (A498 renal) | TGI (SK-MEL-28 melanoma) | TGI (T-47D breast) | TGI (BT-549 breast) | TGI (SR leukemia) | TGI (HCC-2998 colon) | TGI (SNB-75 CNS)
1 | COC(=O)C1=C(C(=O)OC)C2(C)CCC(=O)C1O2 (stereo not drawn) | > 10 µM | > 10 µM | > 10 µM | > 10 µM | > 10 µM | > 10 µM | > 10 µM
2 | COC(=O)c1sc2ncc3c(c2c1N)CC(C)CC3 (stereo not drawn) | > 100 µM | > 100 µM | > 100 µM | > 100 µM | > 100 µM | > 100 µM | > 100 µM
3 | Brc1ccc2c(c1)-c1nc3c(cc1CC2)CCc1ccc(Br)cc1-3 | > 100 µM | > 100 µM | > 100 µM | > 100 µM | – | > 100 µM | > 100 µM
4 | O=C(/C=C1\C[C@H]2C=Nc3ccccc3C(=O)N2C1)NCCCCCNC(=O)/C=C1\C[C@H]2C=Nc3ccccc3C(=O)N2C1 | 33.5 µM | 27.4 µM | 15.7 µM | 26 µM | 12.4 µM | 32.7 µM | 28.4 µM
5 | COP(=O)(CC(=O)C1OC(OCc2ccccc2)C(OCc2ccccc2)C(OCc2ccccc2)C1OCc1ccccc1)OC (stereo not drawn) | – | > 100 µM | 41.9 µM | 71.2 µM | 21.4 µM | 19.2 µM | 92.3 µM
6 | Nc1n[nH]c2ccccc12 | > 100 µM | > 100 µM | > 100 µM | > 100 µM | > 100 µM | – | > 100 µM
7 | COC(=O)C1=C(C)N2[C@H](C(=O)O)CS[C@@]2(C)[C@H](C(=O)OC)[C@H]1c1cccc([N+](=O)[O-])c1 | > 100 µM | > 100 µM | > 100 µM | > 100 µM | > 100 µM | > 100 µM | > 100 µM
8 | Cc1cn(C2CC(OC(c3ccccc3)(c3ccccc3)c3ccccc3)C(COC(c3ccccc3)(c3ccccc3)c3ccccc3)O2)c(=O)[nH]c1=O (stereo not drawn) | 73.8 µM | > 100 µM | – | 98.4 µM | > 100 µM | > 100 µM | > 100 µM
9 | COC1OC2COC(C)(C)OC2C2OC(C)(C)OC12 (stereo not drawn) | > 100 µM | > 100 µM | > 100 µM | > 100 µM | – | > 100 µM | –
10 | CCCC[C@@H]1CCN2C[C@@H](O)[C@@H](O)[C@H]2[C@@H]1O | > 100 µM | > 100 µM | – | > 100 µM | – | > 100 µM | > 100 µM
11 | CCOC(=O)c1ccc(C(=O)/C(C(=O)OC(C)(C)C)=C2\CCCN2C)n1C | > 100 µM | > 100 µM | > 100 µM | > 100 µM | > 100 µM | > 100 µM | 77.8 µM
12 | O=c1oc2ccccc2c2nc3ccccc3cc12 | 96.4 µM | > 100 µM | > 100 µM | > 100 µM | > 100 µM | > 100 µM | –
13 | CC1OC(n2cc(F)c(=O)[nH]c2=O)C(O[Si](C)(C)C(C)(C)C)C1O[Si](C)(C)C(C)(C)C (stereo not drawn) | 27.3 µM | – | 27.1 µM | 26.1 µM | > 100 µM | 28.2 µM | 31.3 µM
14 | O=[N+]([O-])c1ccc2nc3c(nc2c1)-c1c2ccccc2cc2cccc-3c12 | 2.37 µM | > 100 µM | 4.11 µM | 17.9 µM | – | > 100 µM | –
15 | O=C(CN=C(CN(c1ccccc1)c1ccccc1)Oc1c(Cl)cc(Cl)cc1Cl)n1cnc2ccccc21 | – | > 100 µM | > 100 µM | > 100 µM | > 100 µM | > 100 µM | > 100 µM
16 | CC(O)(C(=O)N(O)c1ccc(Cl)cc1)c1ccc(Cl)cc1 (stereo not drawn) | 71.7 µM | > 100 µM | > 100 µM | 61.5 µM | 36.1 µM | 38.7 µM | –

Row | Compound | TGI (A498 renal) | TGI (SK-MEL-28 melanoma) | TGI (T-47D breast) | TGI (BT-549 breast) | TGI (SR leukemia) | TGI (HCC-2998 colon) | TGI (SNB-75 CNS)
17 | O=C(O)c1cc2ccccc2c(S(=O)(=O)O)c1O | > 100 µM | > 100 µM | > 100 µM | > 100 µM | – | > 100 µM | > 100 µM
18 | CCN(CC)C(=S)SS(=O)(=O)c1ccc(C)cc1 | > 100 µM | 39.4 µM | > 100 µM | 68.2 µM | – | > 100 µM | –
19 | C[C@@H]1C(=O)CC2(O)[C@@]13C[C@@H](OC(=O)[C@@H]3O)[C@@H](C)[C@@]21COC1=O (stereo partly drawn) | – | > 100 µM | > 100 µM | > 100 µM | > 100 µM | > 100 µM | > 100 µM
20 | CCOC(=O)Cc1nn2c(=O)cc(C)nc2s1 | – | > 100 µM | > 100 µM | > 100 µM | > 100 µM | > 100 µM | > 100 µM
21 | CC12CCC(C/C1=N\NC(N)=O)C2(C)C (stereo not drawn) | – | > 100 µM | > 100 µM | > 100 µM | > 100 µM | – | > 100 µM
22 | CN(C)c1nc(=NCc2ccccn2)ss1 | > 10 µM | > 10 µM | > 10 µM | – | 4.75 µM | > 10 µM | > 10 µM
23 | CCOC(=O)c1csc(NC(=O)CCCC#N)n1 | > 100 µM | > 100 µM | > 100 µM | – | > 100 µM | > 100 µM | > 100 µM
24 | O=C(NCCCNCCCCNCCCNC(=O)C(F)(F)F)C(F)(F)F | > 100 µM | > 100 µM | > 100 µM | > 100 µM | – | > 100 µM | > 100 µM
25 | COc1cc(OC)c(C2c3cc4c(cc3OC(N3CCOCC3)C2C)OCO4)c(OC)c1 (stereo not drawn) | – | > 100 µM | > 100 µM | – | > 100 µM | > 100 µM | 93.2 µM
26 | COC(=O)c1cc(C(=O)OC)cc(-c2ccc3c(c2)-c2nc4c(c(-c5ccc(OC)cc5)c2CC3)CCc2ccc(-c3cc(C(=O)OC)cc(C(=O)OC)c3)cc2-4)c1 | > 100 µM | > 100 µM | > 100 µM | > 100 µM | – | > 100 µM | > 100 µM
27 | OCC1OC(O[C@H]2CN3[C@H](O)[C@@H](O)[C@H](O)[C@H]3C2O)C(O)C(O)C1O (stereo partly drawn) | > 100 µM | > 100 µM | > 100 µM | > 100 µM | > 100 µM | > 100 µM | –
28 | CCNC(=S)N/N=C/c1ccccn1 | 36.8 µM | > 100 µM | > 100 µM | 87.6 µM | > 100 µM | – | > 100 µM
29 | CCOP(=O)(OCC)c1cc(-c2ccccc2)ccc1N | > 100 µM | > 100 µM | – | > 100 µM | – | > 100 µM | > 100 µM
30 | Clc1cccc(C2ON=C(c3ccccc3)N2C23CC4CC(CC(C4)C2)C3)c1Cl (stereo not drawn) | > 10 µM | > 10 µM | > 10 µM | – | – | > 10 µM | > 10 µM
31 | NC(=S)N=Nc1c(O)cc(Nc2ccc(Cl)cc2Cl)c2ccccc12 | > 100 µM | > 100 µM | 93.6 µM | 97.5 µM | – | > 100 µM | 78.5 µM

Source: PubChem BioAssay (NCI)
